Common to all, as to assay type: cell-based, human
Assay [1] deals with IGR-CaP1 cells. Description: Cell cycle analysis by flow cytometry after propidium iodide staining. The following applies: sensitive IGR-CaP1 cells, 100 nM docetaxel for 48 h. As to the method:
(§1) Freshly plated IGR-CaP1 and IGR-CaP1-R100 cells were incubated for 48 h in complete medium containing or not 100 nM of docetaxel. Cell cycle distribution was studied on 70% cold ethanol-fixed cells, by propidium iodide staining (50 μg in PBS) and RNAse treatment (20 μg) followed by flow cytometry analysis (FACScalibur Becton-Dickinson).

The subject of another assay is IGR-CaP1-R100 cells. The assay is described as above. The following applies: IGR-CaP1-R100 cells resistant to 100 nM docetaxel, 100 nM docetaxel for 48 h. As to the method: as §1
Assay [2] deals with IGR-CaP1 cells. Description: Hormone-dependent growth assay (WST1 cell survival). The following applies: 10^-9M DHT for 72 hours, phenol red free medium with charcoal-stripped serum. As to the method:
(§2) The cell growth kinetic was determined by counting the viable cell number at regular intervals. Cells were seeded in triplicate at 4000 cells/well in 12 well plates in normal culture medium or in medium containing 10% of charcoal-stripped serum. Each day, cells were colored with trypan blue and counted. The doubling-time was calculated from regression equation of the curve. For the hormone-dependent growth assay, cells were seeded at 10 000 cells/well in 96 well plates. After 24 h, the culture medium was replaced with medium without phenol red containing 10% of charcoal-stripped serum and the DHT was added or not at the final concentration of 10^−9M. The medium was replaced each day. After 72 hours, cell survival was measured with the WST1 test according the manufacturer's procedures.

For the next assay, the system named is LNCaP cells. The assay is described as above. The following applies: 10^-9M DHT for 72 hours, phenol red free medium with charcoal-stripped serum. As to the method: as §2
A further assay has as its system PC3 cells. Described as above. The following applies: 10^-9M DHT for 72 hours, phenol red free medium with charcoal-stripped serum. As to the method:
as §2

The next assay has as its system IGR-CaP1-R100 cell line. Description: Resistance of the cell line to a cytotoxic drug.

“Also recorded” adds a separate entry of the source.

As for `CC(=O)O[C@@]12CO[C@@H]1C[C@H](O)[C@@]1(C)C(=O)[C@H](O)C3=C(C)[C@@H](OC(=O)[C@H](O)[C@@H](NC(=O)OC(C)(C)C)c4ccccc4)C[C@@](O)([C@@H](OC(=O)c4ccccc4)[C@H]21)C3(C)C` [docetaxel], the “Cell cycle distribution (block in G2-M phase)” value in the assay on IGR-CaP1 cells [1] is “blocked in G2-M phase”; with IGR-CaP1-R100 cells it was “normally cycle; also recorded: not blocked in G2-M phase”.
For the molecule `C[C@]12CCC(=O)C[C@@H]1CC[C@@H]1[C@@H]2CC[C@]2(C)[C@@H](O)CC[C@@H]12` [DHT], the “Cellular growth in the presence of androgen” value is “did not affect the cellular growth” in the assay with IGR-CaP1 cells [2], “increased” with LNCaP cells and “did not affect the cellular growth” in the assay with PC3 cells.
Turning to `N.N.[Cl][Pt][Cl]` [cisplatin], in the assay with IGR-CaP1-R100 cell line, the “Resistance of the cell line to the drug” value was “resistant”.
